Assay results taken from PubChem BioAssay (NCI).
“And” between values parts separate entries of the source, which are not always exact repeats. Equal entries are not always repeated.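 96-well plates; 48 h exposure; 5 concentrations. Endpoints by linear interpolation between flanking doses. Not reached: highest tested concentration assigned. At the GI50, growth is halved. The concentration for full growth arrest is given as TGI.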

Experiments:
Assay in all cases: NCI-60 cell line screen, 48 h
[1] = test system: SK-OV-3 ovarian
[2] = test system: SNB-19 CNS
[3] = test system: PC-3 prostate
[4] = test system: SF-539 CNS
[5] = test system: CCRF-CEM leukemia
[6] = test system: K-562 leukemia
[7] = test system: IGROV1 ovarian
[8] = test system: TK-10 renal
[9] = test system: HS 578T breast
[10] = test system: MOLT-4 leukemia
[11] = test system: T-47D breast
[12] = test system: M14 melanoma
[13] = test system: OVCAR-4 ovarian
[14] = test system: UACC-257 melanoma
[15] = test system: EKVX NSCLC
[16] = test system: ACHN renal
[17] = test system: NCI-H23 lung
[18] = test system: SR leukemia

Structure (SMILES) | TGI [1] [µM] | TGI [2] [µM] | TGI [3] [µM] | TGI [4] [µM] | TGI [5] [µM] | TGI [6] [µM] | TGI [7] [µM] | TGI [8] [µM] | TGI [9] [µM] | TGI [10] [µM] | TGI [11] [µM] | TGI [12] [µM] | TGI [13] [µM] | TGI [14] [µM] | TGI [15] [µM] | TGI [16] [µM] | TGI [17] [µM] | GI50 [7] | TGI [18] [µM]
CN(C)C(=O)OC(Cn1cncn1)(Cn1cncn1)c1ccc(Cl)cc1Cl | > 100 | > 100 | > 100 | > 100 | > 100 | > 100 | > 100 | > 100 | > 100 | > 100 | > 100 | > 100 | > 100 | > 100 | > 100 |  |  |  | 
COc1ccc(CN=C(N)N)c2ccccc12 | > 100 | > 100 | > 100 | 52.8 | > 100 |  |  | > 100 | 54.9 | > 100 | > 100 | > 100 |  | > 100 | > 100 | > 100 | > 100 |  | 
O=[N+]([O-])c1cc2c(cc1/C=N/n1c(CO)nc3ccccc31)OCO2 | > 100 | > 100 | > 100 | > 100 | > 100 | > 100 |  | > 100 | > 100 | > 100 | > 100 | > 100 | > 100 | > 100 | > 100 | > 100 | > 100 |  | 
COc1ccc(C2SCC(=O)N2NC(=O)c2ccc(NC(C)=O)cc2)cc1 (centres undefined) | > 100 | > 100 |  | > 100 |  | > 100 | > 100 | > 100 | > 100 | > 100 | > 100 | > 100 | > 100 | > 100 | > 100 | > 100 | > 100 |  | 
Cc1c2c(OCCN3CCCCC3)nn(C)c(=O)c2c(C)n1-c1ccccc1 | > 100 | > 100 | > 100 | 74.9 | > 100 | > 100 | > 100 | > 100 | > 100 | > 100 | > 100 | 33.4 | > 100 | 42.6 | > 100 | > 100 | > 100 |  | 
O=C1OC(=O)c2cc(S(=O)(=O)c3ccc4c(c3)C(=O)OC4=O)ccc21 | > 100 | > 100 | > 100 | > 100 | > 100 | > 100 | > 100 | > 100 | > 100 |  | > 100 | > 100 | > 100 | > 100 | > 100 | > 100 | > 100 |  | 
O=c1[nH]nc(Cc2ccccc2)n1CCO | > 100 | > 100 | > 100 | > 100 |  | > 100 | > 100 | > 100 | > 100 | > 100 | > 100 | > 100 | > 100 | > 100 | > 100 | > 100 | > 100 |  | 
CC(=O)OCC1OC(Oc2cc(C)c(O)cc2C/C=C(\C)CC/C=C(\C)CC(=O)CC(C)C)C(O)C(OC(C)=O)C1OC(C)=O (centres undefined) | > 50 | > 50 | > 50 |  | 22.3 | 23.2 | > 50 | 41.1 | 35.2 | 19.5 | 27.3 | 25.7 | > 50 | 31.7 | 16.3 | 44.9 | 18.8 |  | 
N#Cc1c(-c2ccccc2)[nH]c(=O)n(C2OC(CO)C(O)C(O)C2O)c1=O (centres undefined) | > 100 | > 100 | > 100 | > 100 | > 100 | > 100 | > 100 | > 100 | > 100 | > 100 | > 100 | > 100 | > 100 | > 100 | > 100 | > 100 | > 100 | > 100 µM and 21.3 µM | 
O=S(=O)(/N=C(\NO)Nc1ccc(Cl)cc1)c1cccc2nsnc12 | > 100 | > 100 | > 100 | > 100 | 71.9 | > 100 | > 100 | > 100 | 85.6 | > 100 | > 100 | > 100 | > 100 | > 100 | 66 | > 100 | > 100 |  | 
CC(C)C(/C=C/c1ccc(Cl)c(Cl)c1)=N\NC(=O)N/N=C(/C=C/c1ccc(Cl)c(Cl)c1)C(C)C | > 100 | > 100 | > 100 | > 100 | > 100 | > 100 | > 100 | > 100 | > 100 | > 100 |  | > 100 | > 100 | > 100 | > 100 | > 100 | > 100 |  | > 100
Cc1cc(S(=O)(=O)Nc2nc(N)nc(N(C)C)n2)c(SCC(=O)O)cc1Cl | > 10 | > 10 | > 10 | > 10 | > 10 | > 10 | > 10 | > 10 |  | > 10 | > 10 | > 10 | > 10 | > 10 | > 10 | > 10 | > 10 |  | > 10
SCCSCCCSCCS | > 100 | > 100 | > 100 | > 100 | 41.5 | > 100 | > 100 |  |  | 31.2 | > 100 | > 100 | 98.2 | > 100 | > 100 |  | > 100 |  | 32.7
COC(C)(C)C1(O)CCC(C)CC1=O (centres undefined) | > 100 | > 100 | > 100 | > 100 |  |  | > 100 | > 100 | > 100 | > 100 |  | > 100 | > 100 | > 100 | > 100 | > 100 | > 100 |  | > 100
